# Patent US11905530B2, “Cell encapsulation device comprising a pancreatic progenitor cell population” (ViaCyte, Inc., priority 2009, dated 2024)
# Tests used:
# [1] = test system: mice implanted with iPEC grafts; experiment: Glucose stimulated insulin secretion (GSIS): human C-peptide in serum of mice implanted with iPEC grafts; type: in vivo
# Text: (§1) To determine whether the change in the composition of PEC and iPEC populations affected in vivo function, PEC and iPEC grafts from most of the experiments described in Table 11 were transplanted into mice substantially as previously described herein and in Applicant's other patent and non-patent publications, including Schulz et al. (2012) and Kroon et al (2008), supra and U.S. Pat. Nos. 7,534,608; 7,695,965; 7,993,920 and 8,278,106, supra. Briefly, PEC and iPEC populations were wholly encapsulated with a […] semi-permeable cell encapsulation device, some of which included micro perforations. The devices were manufactured by Applicant and are described in detail in U.S. Pat. No. 8,278,106, entitled ENCAPSULATION OF PANCREATIC CELLS FROM HUMAN PLURIPOTENT STEM CELLS, filed Nov. 13, 2009, the disclosure of which is incorporated herein by reference in its entirety. Glucose stimulated insulin secretion (GSIS) assays were performed starting from about 56 days post-implant. Blood was collected prior to (fasting) and at combinations of 30 and/or 60 minutes after glucose administration. Graft function was assessed by measuring human C-peptide concentrations in the serum in response to glucose administration.
# The amount of human C-peptide released into the serum is indicative of the amount of insulin released. C-peptide is a short 31 amino acid peptide connecting or linking A and B-chains of proinsulin and preproinsulin, which is secreted by functioning beta or insulin secreting cells. As discussed previously by Kroon et al. (2008) supra and others, human C-peptide measurements are appropriate for assessing the release of de novo-generated insulin by the implanted cells. […] Human C-peptide was detected in the serum by at least 8 weeks post-implant. With additional weeks of implant and fasting, glucose-stimulated C-peptide levels increased with the peak levels of C-peptide shifting from 60 minutes to 30 minutes post-glucose administration, which is indicative of a more rapid response to glucose challenge as the insulin cells mature.
# PEC derived from hESC = experiment: Flow cytometry analysis of PEC derived from hESC and treated with heregulin and/or FGF2; type: cell-based, human
# Text: Table 9 provides a summary of the flow cytometry analysis of PEC cells treated with Hrg1β and FGF2 at stage 3 and/or 4. The endocrine cells are denoted as CHGA positive (or CHGA+) cells and the non-endocrine cells are denoted as CHGA negative (or CHGA−) cells. The endocrine (CHGA+) and non-endocrine cells (CHGA−) may stain positive for other markers, e.g., positive for PDX1 and/or NKX6.1.
# [2] = test system: hES-derived cell aggregates; experiment: Cell aggregate size of hES-derived cell aggregates in suspension culture; type: cell-based, human
# Procedure: Preliminary studies were performed using Heregulin and FGF. In certain of these studies, Rho-kinase inhibitor, Y-27632, was included.
# PEC (hESC) = experiment: Flow cytometry analysis of PEC from heregulin treated hESC-derived cell cultures (E2354); type: cell-based, human
# Text: (§2) Changes to the standard method as set forth in Table 7 include, but are not limited to: optimization of the number of times any iPSC is passaged; modulating levels of BMP signaling; modulating iPSC suspension aggregation parameters during expansion and differentiation (e.g. shear force, rotation speed and the like); optimization of the concentrations, time of use and duration of use of growth factors, such as Wnt, Activin and rho-kinase inhibitors; and treatment with other growth factors at various stages 1 through 4 of the differentiation protocol as candidates for improving cell mass, proliferation, differentiation, survival and the like (e.g. ERBB ligands). These many iterative experiments were tested alone, or in combination, to determine how differentiation methods for iPSC during stages 1-4 could be optimized. […] The baseline conditions were similar to those described in Examples 1, 2 and 5 as well as Table 7 herein, except that heregulin was added at stages 3 and 4. Although 30 ng/mL of Hrg1β was used, concentrations ranging from 10 ng/mL to 50 ng/mL, or even greater than 50 ng/mL are suitable. Also, addition of a rho-kinase inhibitor, Y-27632, was maintained in the differentiation cultures as described in Example 2.
# (§3) To determine the effect of the addition of heregulin or heregulin and a rho-kinase inhibitor on stage 3 and 4 cell subpopulations, iPEC populations were analyzed by flow cytometry. Table 11 provides a summary of the flow cytometry analysis of various iPEC populations using the formulations set forth in Table 10, as well as such formulations having been modified by increasing the Activin concentration to 200 ng/mL. […] Table 11 also discloses data regarding in vivo function of the cells produced in each experiment.
# Under certain conditions, the ratio of subpopulations of cells in the PEC (hESC, E2354) and iPEC (E2314, E2344, E2347) populations were altered. For example, sometimes, the percentage of endocrine (CHGA+) cells decreased and the percentage of non-endocrine cells (CHGA−/NKX6.1+/PDX1+) increased as compared to the baseline (no heregulin) conditions.
# iPSC = experiment: Cell mass of iPSC-derived differentiation cultures for implantation; type: cell-based, human; conditions: heregulin at stages 3 and 4 without a rho-kinase inhibitor; implantation impossible
# Text: As such, the provision of heregulin alone or a rho-kinase inhibitor alone is not substantially similar to the sum effect of the two combined. That is, alone neither results in robust glucose responsiveness in vivo but combined they produce glucose responsiveness similar to that of hES-derived cells. Accordingly, it appeared that the provision of both heregulin and a rho-kinase inhibitor is synergistic since their combined effect is greater than the sum of the effect of each separately.
# [3] = test system: iPS-derived cell cultures (iPEC); experiment: Flow cytometry analysis of iPEC populations from heregulin treated iPS-derived cell cultures; type: cell-based, human; conditions: hIPSC, 30 ng/mL heregulin at stages 3 and 4
# Text: as §2, §3
# [4] = test system: mice implanted with PEC grafts (CyT203 hESC); experiment: Glucose stimulated insulin secretion (GSIS): human C-peptide in serum of mice implanted with PEC grafts from hESC; type: in vivo; conditions: experiment 2354; PEC produced from hESC; grafts resulting from heregulin treatment
# Text: as §1
# The amount of human C-peptide released into the serum is indicative of the amount of insulin released. […] Human C-peptide was detected in the serum by at least 8 weeks post-implant. […]
molecule,measurement,setting,value
"C[C@@H](N)[C@H]1CC[C@H](C(=O)Nc2ccncc2)CC1 [rho-kinase inhibitor, Y-27632, reference compound]",in vivo function of graft,"[1]; rho-kinase inhibitor alone (baseline conditions, no heregulin)",poor in vivo function
Fibroblast growth factor 2 [FGF2],CHGA− NKX6.1− PDX1− (Triple Negative/ Residual Cells),"PEC derived from hESC; 50 ng/mL of FGF2 for 2 days at stage 3, control 13.1",9.15%
same,CHGA+ (Endocrine),"PEC derived from hESC; 50 ng/mL of FGF2 for 2 days at stage 3, control 32.9",11.9%
same,CHGA− NKX6.1+ PDX1+ (Non-endocrine),"PEC derived from hESC; 50 ng/mL of FGF2 for 2 days at stage 3, control 54.01",79%
same,CHGA− NKX6.1− PDX1− (Triple Negative/ Residual Cells),"PEC derived from hESC; 50 ng/mL of FGF2 for 3 days at stage 3, control 13.1",22.7%
same,CHGA+ (Endocrine),"PEC derived from hESC; 50 ng/mL of FGF2 for 3 days at stage 3, control 32.9",0.33%
same,CHGA− NKX6.1+ PDX1+ (Non-endocrine),"PEC derived from hESC; 50 ng/mL of FGF2 for 3 days at stage 3, control 54.01",76.9%
same,cell aggregate size,[2]; 3 days of 50 ng/mL FGF2 at stage 3 compared to 2 days,increase in cell aggregate size
Heregulin-1β,CHGA− NKX6.1− PDX1− (Triple Negative/ Residual Cells),"PEC (hESC); Exp. E2354, 30 ng/mL heregulin at stages 3 and 4, baseline 1.75",1.86%
same,CHGA− NKX6.1− PDX1+ (PDX1 only),"PEC (hESC); Exp. E2354, 30 ng/mL heregulin at stages 3 and 4, baseline 2.89",8.10%
same,CHGA+ (Endocrine),"PEC (hESC); Exp. E2354, 30 ng/mL heregulin at stages 3 and 4, baseline 33.39",16.18%
same,CHGA− NKX6.1+ PDX1+ (Non-endocrine),"PEC (hESC); Exp. E2354, 30 ng/mL heregulin at stages 3 and 4, baseline 62.01",73.00%
same,CHGA− NKX6.1− PDX1− (Triple Negative/ Residual Cells),"PEC derived from hESC; 10 ng/mL Heregulin-1β at stage 3, control without Hrg and FGF2 13.1, listed as Hrg",8.55%
same,CHGA− NKX6.1− PDX1− (Triple Negative/ Residual Cells),"PEC derived from hESC; 10 ng/mL Heregulin-1β at stage 3, control without Hrg and FGF2 13.1, listed as Hrg1β",did decrease
same,CHGA− NKX6.1+ PDX1+ (Non-endocrine),"PEC derived from hESC; 10 ng/mL Heregulin-1β at stage 3, control without Hrg and FGF2 54.01",61.2%
same,CHGA+ (Endocrine),"PEC derived from hESC; 10 ng/mL Heregulin-1β at stage 3, share of PEC population, control without Hrg and FGF2 32.9, listed as Hrg",30.3%
same,CHGA+ (Endocrine),"PEC derived from hESC; 10 ng/mL Heregulin-1β at stage 3, share of PEC population, control without Hrg and FGF2 32.9, listed as Hrg1β",not significantly affected
same,CHGA− NKX6.1− PDX1− (Triple Negative/ Residual Cells),"PEC derived from hESC; 50 ng/mL Heregulin-1β at stage 3, control 13.1, listed as Hrg",6.9%
same,CHGA− NKX6.1− PDX1− (Triple Negative/ Residual Cells),"PEC derived from hESC; 50 ng/mL Heregulin-1β at stage 3, control 13.1, listed as Hrg1β",did decrease and more so
same,CHGA+ (Endocrine),"PEC derived from hESC; 50 ng/mL Heregulin-1β at stage 3, control 32.9",28.9%
same,CHGA− NKX6.1+ PDX1+ (Non-endocrine),"PEC derived from hESC; 50 ng/mL Heregulin-1β at stage 3, control 54.01",64.2%
same,cell mass,iPSC,visibly poor cell mass
same,CHGA− NKX6.1− PDX1− (Triple Negative/ Residual Cells),"[3]; Exp. E2314, baseline 3.20",9.88%
same,CHGA− NKX6.1− PDX1+ (PDX1 only),"[3]; Exp. E2314, baseline 11.32",16.83%
same,CHGA+ (Endocrine),"[3]; Exp. E2314, baseline 19.83",9.00%
same,CHGA− NKX6.1+ PDX1+ (Non-endocrine),"[3]; Exp. E2314, baseline 65.59",64.21%
same,CHGA− NKX6.1− PDX1− (Triple Negative/ Residual Cells),"[3]; Exp. E2344, baseline 1.80",2.75%
same,CHGA− NKX6.1− PDX1+ (PDX1 only),"[3]; Exp. E2344, baseline 5.45",11.23%
same,CHGA− NKX6.1+ PDX1+ (Non-endocrine),"[3]; Exp. E2344, baseline 36.15",49.00%
same,CHGA+ (Endocrine),"[3]; Exp. E2344, baseline 56.51",36.13%
same,CHGA− NKX6.1− PDX1− (Triple Negative/ Residual Cells),"[3]; Exp. E2347, baseline 2.11",1.68%
same,CHGA− NKX6.1− PDX1+ (PDX1 only),"[3]; Exp. E2347, baseline 10.97",12.30%
same,CHGA− NKX6.1+ PDX1+ (Non-endocrine),"[3]; Exp. E2347, baseline 37.16",68.91%
same,CHGA+ (Endocrine),"[3]; Exp. E2347, baseline 49.78",17.27%
same,CHGA− NKX6.1− PDX1− (Triple Negative/ Residual Cells),"[3]; Exp. E2380, baseline 9.10",7.03%
same,CHGA− NKX6.1− PDX1+ (PDX1 only),"[3]; Exp. E2380, baseline 12.08",17.24%
same,CHGA− NKX6.1+ PDX1+ (Non-endocrine),"[3]; Exp. E2380, baseline 38.18",29.72%
same,CHGA+ (Endocrine),"[3]; Exp. E2380, baseline 41.16",increased rather than decreased
same,CHGA+ (Endocrine),"[3]; Exp. E2380, baseline 41.16, listed as Hg",45.91%
same,increase of serum human C-peptide compared to grafts prepared without heregulin (baseline),"[1]; experiment 2380, 60 minutes post glucose administration",~5 fold
same,serum human C-peptide,"[1]; experiment 2380, iPEC grafts resulting from heregulin treatment, 60 minutes post glucose administration, baseline 200 pM",933 pM
same,serum human C-peptide post glucose administration compared to baseline controls,"[1]; grafts resulting from heregulin treatment, in general (FIGS. 7A-7C)",higher levels of serum human C-peptide
same,cell aggregate size,"[2]; 10 ng/mL for one day at stage 1, compared to suspension culture without Heregulin-1β, preliminary studies",increased the cell aggregate size
same,aggregate disk size,[2]; Hrg1β increased from 10 ng/mL to 50 ng/mL at stage 3,aggregate disk size increased
same,serum C-peptide compared to baseline controls,[4],does not show higher levels of serum C-peptide
